Values quoted from earlier work as cited in publication PMC6286348, “Inhibitor binding mode and allosteric regulation of Na^+-glucose symporters” (Nature Communications, 2018).
Positions count from the first letter of the chain named.

Columns and labels:
[1] = target: T1, hSGLT1 Y290F (Homo sapiens, UniProt P13866, Y290F); parameters: method as in PMID 23116249; conditions: oocytes, 22 °C; cited from earlier work
T1 construct: expressed in transfected cells; host or cells: Xenopus laevis oocytes injected with cRNA
T1 sequence (P13866 1-664 Y290F): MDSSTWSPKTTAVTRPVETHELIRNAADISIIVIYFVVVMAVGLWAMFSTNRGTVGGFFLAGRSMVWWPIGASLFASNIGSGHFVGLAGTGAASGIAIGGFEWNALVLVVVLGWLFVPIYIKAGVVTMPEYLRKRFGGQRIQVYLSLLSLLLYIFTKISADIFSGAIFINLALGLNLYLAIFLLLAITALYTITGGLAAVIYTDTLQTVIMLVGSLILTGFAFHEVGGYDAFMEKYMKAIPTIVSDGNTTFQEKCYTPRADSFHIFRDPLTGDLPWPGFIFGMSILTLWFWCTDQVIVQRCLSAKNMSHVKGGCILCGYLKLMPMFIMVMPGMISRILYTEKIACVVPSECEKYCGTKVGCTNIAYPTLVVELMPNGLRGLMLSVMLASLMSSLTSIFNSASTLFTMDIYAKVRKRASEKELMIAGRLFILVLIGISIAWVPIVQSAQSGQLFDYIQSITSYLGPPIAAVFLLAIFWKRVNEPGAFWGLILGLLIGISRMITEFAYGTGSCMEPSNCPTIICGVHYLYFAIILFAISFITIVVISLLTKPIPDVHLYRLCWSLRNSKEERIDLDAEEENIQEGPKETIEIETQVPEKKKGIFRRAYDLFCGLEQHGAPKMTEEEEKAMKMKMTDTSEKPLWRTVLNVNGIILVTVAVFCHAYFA

[2] = target: T2, hSGLT1 T287C (Homo sapiens, UniProt P13866, T287C); parameters: method as in PMID 29087341; conditions: oocytes, 22 °C; cited from earlier work
T2 construct: expressed in transfected cells; host or cells: Xenopus laevis oocytes injected with cRNA
T2 sequence (P13866 1-664 T287C): T1 sequence (P13866 1-664 Y290F) with T287C, F290Y

[Na+] [Na^+]
K0.5 Na^+ [1]: 20 ± 1[21] mM | K0.5 Na^+ [2]: 6 ± 0.2[19] mM
